Laboratory results reported in PubChem BioAssay AID434955 (Southern Research Specialized Biocontainment Screening …, 2010).

Tested on: M. tuberculosis H37Rv growth with meropenem, percent inhibition
Experiment: beta-lactam sensitization of Mtb H37Rv, H37Rv (AID 434955)

| Compound | IC90 |
| --- | --- |
| COc1cccc(/C=N/NC(=O)c2cnccn2)c1O | 13.9 µM |
| Nc1ncnc2c1c(-c1ccc(Oc3ccccc3)cc1)cn2C1CCCC1 | 60.3 µM |
| CC(=O)Nc1ccc(Nc2ncc([N+](=O)[O-])c(Nc3ccc(NC(C)=O)cc3)n2)cc1 | 45.5 µM |
| O=c1cc(C(F)(F)F)c2sc(N3CCCCC3)nc2[nH]1 | 49.3 µM |
| CSc1ccc(/C=C/C(=O)NC23CC4CC(CC(C4)C2)C3)cc1 | 16.1 µM |
| Cc1ccccc1OCC(=O)Nc1ccccc1N1CCCCC1 | 13.5 µM |
| COc1cc(OC)cc(-c2cc3ccc(OC)cc3cn2)c1 | 76.9 µM |
| COc1ccc(-n2cc(-c3ccccc3)c3c(NN4CCOCC4)ncnc32)cc1 | 36.1 µM |
| COc1cccc(C(=O)C2CCCN(Cc3ccccn3)C2)c1 (configuration not stated) | 97.5 µM |
| COc1ccc(N2C(=O)NC(=O)/C(=C\c3ccc([N+](=O)[O-])s3)C2=O)cc1 | 21.3 µM |
| COc1ccc(-c2cc(=Nc3ccc(C)cc3)c3ccccc3o2)cc1 | 98.3 µM |
| CCCCN(C)Cc1cc(=O)oc2cc3c(cc12)CCCC3 | 82.2 µM |
| CCCC(C)NC(=O)c1ccc(OCc2ccc(Cl)cc2)c(OC)c1 (configuration not stated) | 11.6 µM |
| CCOC(=O)c1nc(N2CCN(C(=O)OCC)CC2)c2c3c(sc2n1)CCCC3 | 40.9 µM |
| CCOc1ccc(N2C(=O)CC(N)C2=O)cc1 (configuration not stated) | 52.4 µM |
| Cc1ccc(C2=N/C(=C\c3cccc(F)c3)C(=O)O2)cc1 | 4.02 µM |
| COC(=O)c1sc(-c2ccc(Cl)cc2)cc1NC(=O)COCC(=O)O | 44.8 µM |
| Cc1ccccc1NC(=O)/C(C#N)=C\c1cc(C)n(-c2ccc(C(=O)O)cc2)c1C | 51.1 µM |
| Cc1ccc(C(C)C)c(OCc2ccc(C(=O)N/N=C/c3ccc(C(=O)O)cc3)cc2)c1 | 49.5 µM |
| CCN(CC)S(=O)(=O)c1ccc(N/N=C(\C)c2ccc(OC)cc2O)nc1 | 10.4 µM |
| COc1cc(/C=C/c2ccc3cccc([N+](=O)[O-])c3n2)ccc1OCC(=O)O | 12 µM |

| Compound | IC90 |
| --- | --- |
| O=C(Cc1cccc2ccccc12)N/N=C/c1ccc(O)c([N+](=O)[O-])c1 | 31.6 µM |
| Cc1cc(=O)[nH]c(N/N=C/c2c(F)c(F)c(F)c(F)c2F)n1 | 82.3 µM |
| CCCCNC(=O)c1onc(CSc2ccccc2CC)c1C(=O)O | 23.7 µM |
| c1ccc(-c2n[nH]c3c2CCC3)cc1 | 46.3 µM |
| C=CCNCCCOc1ccc(Cl)cc1C(C)(C)C | 52.6 µM |
| C=CCc1cc(Cl)ccc1OCCCNC(C)CC (configuration not stated) | 51.3 µM |
| CCN(CC(=O)Nc1ccc2c(c1)OCCO2)C(=O)c1ccc([N+](=O)[O-])s1 | 26 µM |
| C/C(CC(=O)NCc1ccco1)=N\NC(=O)CC#N | 17.6 µM |
| C=CCSc1nc2c(c(-c3ccsc3)c1C#N)CN(C)CC2 | 55.1 µM |
| CC1(C)CC(CCNC(=O)CCl)(c2ccccc2)CCO1 (configuration not stated) | 8.14 µM |
| COCCSc1nc2sc3c(c2c(=O)n1-c1ccccc1)CCN(C)C3 | 53.3 µM |
| CCCCCCCN(C(=O)CCl)c1ccccc1C | 35.2 µM |
| O=[N+]([O-])c1cc(C(F)(F)F)ccc1NCCc1c[nH]c2ccc(O)cc12 | 72.9 µM |
| CCCOc1ccccc1NC(=O)/C=C/C(N)=O | 27.7 µM |
| Cc1nnc(SCc2cccc(Cl)c2)n(N)c1=O | 10.1 µM |
| O=C(/C=C/c1ccc([N+](=O)[O-])cc1)c1cccs1 | 12.2 µM |
| CCOC(=O)N1CCN(C(=O)CSc2nnc(COc3ccccc3)o2)CC1 | 18.4 µM |
| CC1CCCN(S(=O)(=O)c2ccc(C(=O)Nc3nnc(-c4ccncc4)o3)cc2)C1 (configuration not stated) | 64.8 µM |
| Cc1noc(NS(=O)(=O)c2ccc(N/C=C\C(=O)c3ccc4c(c3)OCO4)cc2)c1C | 86 µM |
| CCc1cc2c(-c3ccccc3)cc(=O)oc2cc1OC(C)C(C)=O (configuration not stated) | 48.5 µM |
| COc1ccc(OC)c(-c2cc(C(=O)Nc3c(C)n(C)n(-c4ccccc4)c3=O)no2)c1 | 49.5 µM |

| Compound | IC90 |
| --- | --- |
| Cc1cc(C=C2C(=O)NC(=S)NC2=O)c(C)n1-c1ccc2c(c1)OCO2 | 14.5 µM |
| CCn1cc(C(=O)O)c(=O)c2cc(F)c(N3CCN(C(=S)NC(=O)c4ccccc4C)CC3)cc21 | 16 µM |
| CC(C)(C)c1nn(-c2ccccc2)c2[nH]c(=O)c(CNc3ccc4c(c3)OCCO4)cc12 | 99.7 µM |
| O=C1Nc2c(ccc(Cl)c2Cl)C(=O)C1(F)c1ccccc1 (configuration not stated) | 71.7 µM |
| CN1C/C(=N\S(=O)(=O)c2ccccc2)N(C)C1=O | 33.7 µM |
| O=C(CC12CC3CC(CC(C3)C1)C2)NCc1ccc(F)cc1 | 10.4 µM |
| CC(=O)c1ccc(OC(=O)N(c2ccccc2)c2ccccc2)cc1 | 32.9 µM |
| CCOC(=O)CNC(=O)/C(=C\c1ccc(F)cc1)NC(=O)c1ccccc1 | 35.1 µM |
| CC1CCCN(C(=O)C2CCN(c3ncnc4c3nc3n4CCCCC3)CC2)C1 (configuration not stated) | 49.7 µM |
| O=C1/C(=C/c2ccncc2)CCc2ccccc21 | 29.1 µM |
| CCCCC12CN3CC(C)(CN(C1)C3c1ccc([N+](=O)[O-])o1)C2=O (configuration not stated) | 23.5 µM |
| Cc1cccc(-n2nc([N+](=O)[O-])c(=NC3CCN(Cc4ccccc4)CC3)n2O)c1 | 30.5 µM |
| N#Cc1c(SCC(=O)O)nc(N2CCCCC2)c2c1CCCC2 | 27 µM |
| Cn1c(SCC(=O)OC2CCCCC2)nnc1-c1ccc2c(c1)OCO2 | 34.9 µM |
| CCOc1ccc(S(=O)(=O)N(C(=O)c2ccco2)c2cc3sc(=O)oc3c3ccccc23)cc1 | 46.9 µM |
| O=C(O)CCN1C(=O)/C(=C/c2ccc(-c3nc4ccccc4s3)o2)SC1=S | 78.4 µM |
| Cc1onc(NC(=O)c2ccc([N+](=O)[O-])o2)c1Br | 16.4 µM |
| O=C(CCCCCN1C(=O)c2cccc([N+](=O)[O-])c2C1=O)Nc1ccccc1F | 44.1 µM |
| CCOC(=O)c1cnc2cc(-c3ccc(C(C)(C)C)cc3)nn2c1N | 5.74 µM |
| Cn1c(=O)c2ccccc2n2c(CCl)nnc12 | 4.65 µM |
| CN(C(=O)Nc1ccc(Cl)cc1)n1cnc2ccccc2c1=O | 48.6 µM |

| Compound | IC90 |
| --- | --- |
| CC[C@@](C)(NS(=O)(=O)OCC(Cl)(Cl)Cl)c1ccccc1 | 54.8 µM |
| Cc1cc(C)c(OCC(=O)Nc2nc3ccccc3[nH]2)c(C)c1 | 65.2 µM |
| COc1cc(C(=S)N2CCOCC2)ccc1OC(=O)c1ccc([N+](=O)[O-])cc1[N+](=O)[O-] | 5.92 µM |
| CC(C)C[C@H](NC(=O)c1nc[nH]c1C(=O)N1CCN(C(=O)OC(C)(C)C)CC1)C(=O)OCc1ccccc1 | 54.9 µM |
| CC(C)CC(=O)N1CCN(c2ccc([N+](=O)[O-])c(NCc3ccccc3)c2)CC1 | 48.6 µM |
| COC(=O)CNC(c1ccccc1Cl)c1cc(Br)ccc1NC(=O)CCN1CCOCC1 (configuration not stated) | 34.3 µM |
| O=C(O)CSc1ncnc2c1sc1nc(-c3ccccc3)c3c(c12)CCC3 | 14.2 µM |
| Cc1ccc(C)c(N2CCN(C3CCCC(C)C3)CC2)c1 (configuration not stated) | 48.2 µM |
| CC(C)C1CC(CCNCc2ccc(N(C)C)cc2)(c2ccccc2)CCO1 (configuration not stated) | 26.9 µM |
| CCOC(=O)c1c(NC(=O)COC(=O)c2ncc(Cl)c(Cl)c2Cl)sc(C(=O)N(C)C)c1C | 27.7 µM |
| CCCc1cc(NC(=O)COC(=O)c2nccnc2N)n(-c2ccccc2)n1 | 50.8 µM |
| CC(C)(C)c1ccc(C(=O)Oc2ccc3c(c2)OCC3=O)cc1 | 29.4 µM |
| CC/C(=N\NC(=S)NC(C)C)c1ccc(OC)c(OC)c1 | 15.5 µM |
| COc1cccc(/C=N/Nc2nc(N3CCCC3)nc(N3CCCC3)n2)c1O | 36.1 µM |
| Cc1nnnn1/C(=C\c1ccccc1)C(=O)OCC(=O)NC1CCCCC1 | 17.6 µM |
| Cc1cccc2c(C(=O)n3cccn3)cc(-c3ccccc3Cl)nc12 | 26.8 µM |
| Cc1cc(C)cc(OCC(=O)NNC(=O)c2ccccn2)c1 | 16 µM |
| CC(=O)Nc1ccc(S(=O)(=O)Nc2cccc3cccnc23)cc1 | 43.3 µM |
| C/C(=N/NC(=O)c1cccs1)c1c(C)[nH]n(-c2nc3ccccc3s2)c1=O | 1.58 µM |
